Reference: PubChem BioAssay (NCI)
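Each compound was tested at five concentrations against cells in 96-well plates for 48 hours. TGI: total growth inhibition.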 *1 amine or outer side, *2 acyl side, *3 side chain or, on linkers, in order; H or OH if unused. Where a SMILES comes first, the peptide text is derived from it. Bridges are numbered along the chain shown (N, C = ends). [ ]: non-standard residue; d: D form. The star is where a group is joined. ξ: configuration not given here. X34 = O=C(C(CCCCNO[*:3])N[*:1])[*:2]; Fmoc = O=C(OCC1c2ccccc2-c2ccccc21)*; ξW = NC(Cc1c[nH]c2ccccc12)C(=O)O; ξP = O=C(O)C1CCCN1

What was measured:
Assay in all cases: DTP human tumour cell line panel, 48 h
[1] = test system: BT-549 breast
[2] = test system: CCRF-CEM leukemia
[3] = test system: HCC-2998 colon
[4] = test system: HS 578T breast
[5] = test system: IGROV1 ovarian
[6] = test system: K-562 leukemia
[7] = test system: NCI-H522 lung
[8] = test system: NCI/ADR-RES ovarian
[9] = test system: RXF 393 renal
[10] = test system: SK-MEL-2 melanoma
[11] = test system: SNB-75 CNS
[12] = test system: TK-10 renal

## COc1cc(O)c(/C=N/N=C(\N)NO)c(OC)c1
[1]
  TGI: > 10 µM
[2]
  TGI: > 10 µM
[3]
  TGI: > 10 µM
[4]
  TGI: > 10 µM
[5]
  TGI: > 10 µM
[6]
  TGI: > 10 µM
[7]
  TGI: > 10 µM
[8]
  TGI: > 10 µM
[9]
  TGI: > 10 µM
[10]
  TGI: > 10 µM
[11]
  TGI: > 10 µM
[12]
  TGI: > 10 µM

## COCOC1/C=C/CCCC#C[C@H](C)C(=O)CC1 (stereo partly specified)
[1]
  TGI: 27.1 µM
[2]
  TGI: 8.46 µM
[3]
  TGI: 28.9 µM
[4]
  TGI: 46.4 µM
[5]
  TGI: 22.7 µM
[6]
  TGI: 5.28 µM
[7]
  TGI: 18.1 µM
[8]
  TGI: 29 µM
[9]
  TGI: 23.4 µM
[10]
  TGI: 31.3 µM
[11]
  TGI: 25.3 µM
[12]
  TGI: 28.6 µM

## NC(=O)CNC(=O)C1CCCN1C(=O)C1CCCCNOC(=O)CC[C@@H](NC(=O)OCC2c3ccccc3-c3ccccc32)C(=O)NC(Cc2c[nH]c3ccccc23)C(=O)N1 (stereo partly specified) (Fmoc-[dE][ξW][X34][ξP]G-NH2; ester 1-3)
[1]
  TGI: > 100 µM
[2]
  TGI: > 100 µM
[3]
  TGI: > 100 µM
[4]
  TGI: > 100 µM
[5]
  TGI: > 100 µM
[6]
  TGI: > 100 µM
[7]
  TGI: > 100 µM
[8]
  TGI: > 100 µM
[9]
  TGI: > 100 µM
[10]
  TGI: > 100 µM
[11]
  TGI: > 100 µM
[12]
  TGI: > 100 µM

## OCCCCCNc1c2ccccc2nc2ccccc12
[1]
  TGI: 25.3 µM
[2]
  TGI: > 61.7 µM
[3]
  TGI: 3.36 µM
[4]
  TGI: 8.57 µM
[5]
  TGI: 12.2 µM
[6]
  TGI: 14.2 µM
[7]
  TGI: 10.2 µM
[8]
  TGI: > 57.2 µM
[9]
  TGI: 10.9 µM
[10]
  TGI: 7.43 µM
[11]
  TGI: 12.5 µM
[12]
  TGI: 20.3 µM

## C[N+]1=C2[B-](C(C)(C)C)=[N+](C(C)(C)C)[B-]2(C(C)(C)C)[N+](C)=C2[B-](C(C)(C)C)=[N+](C(C)(C)C)[B-]21C(C)(C)C (stereo unspecified)
[1]
  TGI: > 100 µM
[2]
  TGI: > 100 µM
[3]
  TGI: > 100 µM
[4]
  TGI: > 100 µM
[5]
  TGI: > 100 µM
[6]
  TGI: > 100 µM
[7]
  TGI: > 100 µM
[8]
  TGI: > 100 µM
[9]
  TGI: > 100 µM
[10]
  TGI: > 100 µM
[11]
  TGI: > 100 µM
[12]
  TGI: > 100 µM

## COc1cccc(-c2cc(=O)c3ccccc3o2)c1N
[1]
  TGI: > 100 µM
[2]
  TGI: > 100 µM
[3]
  TGI: > 100 µM
[4]
  TGI: > 100 µM
[5]
  TGI: > 100 µM
[6]
  TGI: > 100 µM
[7]
  TGI: > 100 µM
[8]
  TGI: > 100 µM
[9]
  TGI: > 100 µM
[10]
  TGI: > 100 µM
[11]
  TGI: > 100 µM
[12]
  TGI: > 100 µM

## COc1cccc2c(N)c3cccc(C(=O)NCCN(C)C)c3nc12
[1]
  TGI: 4.95 µM
[2]
  TGI: 0.288 µM
[3]
  TGI: 0.971 µM
[4]
  TGI: 0.571 µM
[5]
  TGI: 1.65 µM
[6]
  TGI: 0.383 µM
[7]
  TGI: 0.149 µM
[8]
  TGI: 12.4 µM
[9]
  TGI: 0.88 µM
[10]
  TGI: 1.05 µM
[11]
  TGI: 0.362 µM
[12]
  TGI: 6.14 µM

## COc1cc(/C=C2/C(=O)N(C(=O)c3ccccc3O)N=C2C)cc(OC)c1OC
[1]
  TGI: > 100 µM
[2]
  TGI: > 100 µM
[3]
  TGI: > 87.8 µM
[4]
  TGI: > 100 µM
[5]
  TGI: 4.71 µM
[6]
  TGI: > 100 µM
[7]
  TGI: 33.4 µM
[8]
  TGI: > 100 µM
[9]
  TGI: 8.74 µM
[10]
  TGI: > 29.4 µM
[11]
  TGI: > 100 µM
[12]
  TGI: > 100 µM
